Experimental findings from US7863438B2 (Yamasa Corporation, priority 2005, dated 2011) are described below.

SMILES strings stand for the structures. Where a name gives a salt, the structure may show the parent alone. Read-outs that look alike come from different tables or passages of the source.

Data set [1] is described as follows: Ambient-temperature stability of PAPS lithium salt in aqueous solution or in the form of powder (HPLC determination of PAPS). The procedure:
ODS-[…] column (product of YMC) • Eluent: 50 mM Aqueous potassium dihydrogenphosphate solution • Flow rate: 0.6 mL/minute • Detection: Absorbance (A) at 270 nm • Temperature: 20° C. The present invention will next be specifically described in detail with reference to Referential Example and Example. However, it will be understood that the present invention is not limited to the Example. Quantitative determination of PAPS was performed under the aforementioned HPLC conditions. Ambient-temperature stability of a PAPS lithium salt (product of Calbiochem) was evaluated in an aqueous solution or in the form of powder as follows. […] As used herein, “percent undecomposed” or “percentage of undecomposed PAPS” is the ratio of the remaining amount of PAPS to the initial amount thereof.

[2] abbreviates: powder 10 mg, desiccator (relative humidity: 10%), ambient temperature (23±2° C.), seven days.

Consider `Nc1ncnc2c1ncn2[C@@H]1O[C@H](COP(=O)(O)OS(=O)(=O)O)[C@@H](OP(=O)(O)O)[C@H]1O` [Diethylamine salt, 3′-phosphoadenosine 5′-phosphosulfate], for which the “Undecomposed PAPS (%)” value under setting [2] is listed as 96%.
For `Nc1ncnc2c1ncn2[C@@H]1O[C@H](COP(=O)(O)OS(=O)(=O)O)[C@@H](OP(=O)(O)O)[C@H]1O` [Ethanolamine salt, 3′-phosphoadenosine 5′-phosphosulfate], the “Undecomposed PAPS (%)” value under setting [2] is given as 13%.
Consider `Nc1ncnc2c1ncn2[C@@H]1O[C@H](COP(=O)(O)OS(=O)(=O)O)[C@@H](OP(=O)(O)O)[C@H]1O` [Lithium salt, 3′-phosphoadenosine 5′-phosphosulfate], for which the “Undecomposed of PAPS (%)” value in data set [1] (aqueous solution 10 mg/mL, standing still at 4° C. for seven days) is listed as over 99%; in data set [1] (aqueous solution 10 mg/mL, standing still at 23° C. for seven days), 96%; in data set [1] (powder (10 mg), standing still at 4° C. for seven days), 89%; in data set [1] (powder (10 mg), standing still at 23° C. for seven days) it was 65%. Moreover, the “stability in aqueous solution (in words)” value in data set [1] (aqueous solution, seven days) was “relatively stable”. Also, in data set [1] (powder, ambient temperature, seven days), the “decomposed (%)” value was 35%. For the same molecule, in data set [1] (powder, seven days), the “stability in the form of powder (in words)” value was “very unstable”. For the same molecule, the “Undecomposed PAPS (%)” value under setting [2] was 65%.
In the case of `Nc1ncnc2c1ncn2[C@@H]1O[C@H](COP(=O)(O)OS(=O)(=O)O)[C@@H](OP(=O)(O)O)[C@H]1O` [Trimethylamine salt, 3′-phosphoadenosine 5′-phosphosulfate], the “Undecomposed PAPS (%)” value is recorded as 89%.
Regarding `Nc1ncnc2c1ncn2[C@@H]1O[C@H](COP(=O)(O)OS(=O)(=O)O)[C@@H](OP(=O)(O)O)[C@H]1O` [Potassium salt, 3′-phosphoadenosine 5′-phosphosulfate], under setting [2], the “Undecomposed PAPS (%)” value came to 22%.
With `Nc1ncnc2c1ncn2[C@@H]1O[C@H](COP(=O)(O)OS(=O)(=O)O)[C@@H](OP(=O)(O)O)[C@H]1O` [Piperidine salt, 3′-phosphoadenosine 5′-phosphosulfate], the “Undecomposed PAPS (%)” value was found to be 92%.
Turning to `Nc1ncnc2c1ncn2[C@@H]1O[C@H](COP(=O)(O)OS(=O)(=O)O)[C@@H](OP(=O)(O)O)[C@H]1O` [Ethylamine salt, 3′-phosphoadenosine 5′-phosphosulfate], the “Undecomposed PAPS (%)” value is given as 48%.
Consider `Nc1ncnc2c1ncn2[C@@H]1O[C@H](COP(=O)(O)OS(=O)(=O)O)[C@@H](OP(=O)(O)O)[C@H]1O` [Polyethyleneimine salt, 3′-phosphoadenosine 5′-phosphosulfate], for which the “Undecomposed PAPS (%)” value under setting [2] is 94%.
Same read-out and setting: the value for `Nc1ncnc2c1ncn2[C@@H]1O[C@H](COP(=O)(O)OS(=O)(=O)O)[C@@H](OP(=O)(O)O)[C@H]1O` [Imidazole salt, 3′-phosphoadenosine 5′-phosphosulfate] was 2.9%; that for `Nc1ncnc2c1ncn2[C@@H]1O[C@H](COP(=O)(O)OS(=O)(=O)O)[C@@H](OP(=O)(O)O)[C@H]1O` [L-Histidine salt, 3′-phosphoadenosine 5′-phosphosulfate] was 98%.
Take `Nc1ncnc2c1ncn2[C@@H]1O[C@H](COP(=O)(O)OS(=O)(=O)O)[C@@H](OP(=O)(O)O)[C@H]1O` [Triethylamine salt, 3′-phosphoadenosine 5′-phosphosulfate]: the “Undecomposed PAPS (%)” value under setting [2] is listed as 100%.
Same read-out and setting: the value for `Nc1ncnc2c1ncn2[C@@H]1O[C@H](COP(=O)(O)OS(=O)(=O)O)[C@@H](OP(=O)(O)O)[C@H]1O` [Putrescine salt, 3′-phosphoadenosine 5′-phosphosulfate] was 80%; that for `Nc1ncnc2c1ncn2[C@@H]1O[C@H](COP(=O)(O)OS(=O)(=O)O)[C@@H](OP(=O)(O)O)[C@H]1O` [Ammonium salt, 3′-phosphoadenosine 5′-phosphosulfate] was 4.1%.
`Nc1ncnc2c1ncn2[C@@H]1O[C@H](COP(=O)(O)OS(=O)(=O)O)[C@@H](OP(=O)(O)O)[C@H]1O` [L-Lysine salt, 3′-phosphoadenosine 5′-phosphosulfate]: the “Undecomposed PAPS (%)” value amounted to 27%.
As to `Nc1ncnc2c1ncn2[C@@H]1O[C@H](COP(=O)(O)OS(=O)(=O)O)[C@@H](OP(=O)(O)O)[C@H]1O` [L-Arginine salt, 3′-phosphoadenosine 5′-phosphosulfate], the “Undecomposed PAPS (%)” value was determined as 57%.
In the case of `Nc1ncnc2c1ncn2[C@@H]1O[C@H](COP(=O)(O)OS(=O)(=O)O)[C@@H](OP(=O)(O)O)[C@H]1O` [Sodium salt, 3′-phosphoadenosine 5′-phosphosulfate], under setting [2], the “Undecomposed PAPS (%)” value stood at 64%.
